These results are taken from patent US20250230226A1, “PLXDC1/PLXDC2 ACTIVATORS AND THEIR USE IN THE TREATMENT OF BLOOD VESSEL DISORDERS” (THE REGENTS OF THE UNIVERSITY OF CALIFORNIA, priority 2019, published 2025).

For one test, the target named is T1, PLXDC1 (Homo sapiens, UniProt Q8IUK5).
T1 construct: expressed in transfected cells
T1 sequence (Q8IUK5 19-500): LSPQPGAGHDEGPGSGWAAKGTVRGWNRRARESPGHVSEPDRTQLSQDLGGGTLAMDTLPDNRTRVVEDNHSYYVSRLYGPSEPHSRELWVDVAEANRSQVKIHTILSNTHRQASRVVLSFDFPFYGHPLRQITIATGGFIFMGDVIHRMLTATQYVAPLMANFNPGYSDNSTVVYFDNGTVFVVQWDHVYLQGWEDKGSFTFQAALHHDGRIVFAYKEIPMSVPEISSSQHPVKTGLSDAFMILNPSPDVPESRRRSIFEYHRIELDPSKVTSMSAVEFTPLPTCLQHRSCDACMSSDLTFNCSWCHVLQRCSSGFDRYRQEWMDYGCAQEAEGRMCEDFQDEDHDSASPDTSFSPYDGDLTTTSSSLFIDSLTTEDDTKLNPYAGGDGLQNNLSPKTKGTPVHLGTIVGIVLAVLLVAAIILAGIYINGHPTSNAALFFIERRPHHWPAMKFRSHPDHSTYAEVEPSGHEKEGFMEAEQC
As to the kind of experiment: Gfi1b promotor luciferase receptor activation assay, PLXDC1-expressing cells (FIG. 18A, 19). The format is cell-based. The settings on record: compound treatments 1 day; basal activity defined as 1. The text has this:
FIG. 18A-B show activation of PLXDC1 and PLXDC2 by small molecules. […] All compound treatments were done for 1 day. Basal promotor activity of the PLXDC1-expressing cells is defined as 1.
Basal promotor activity of the PLXDC1-expressing cells is defined as 1. The basal activity of PLXDC1-expressing cells (Control) are higher than cells without PLXDC1, consistent promotor activation by the ectopic expression of the receptor without ligands.
By linking its promotor to a luciferase reporter gene, this example developed a PLXDC1 receptor activation assay.

In the next test the test system is tumor endothelial cells. As to the kind of experiment: Ex vivo model of tumor angiogenesis, comparison with anti-VEGF drug and PEDF (FIG. 4). The format is cell-based. The settings on record: cells grown 5 days, test reagents added for 2 days. The procedure:
FIG. 4A-F. A comparison between an anti-VEGF drug, PEDF and two compounds that target PLXDC1/PLXDC2 in an ex vivo model of tumor angiogenesis. […] Tumor endothelial cells were grown for 5 days before test reagents were added for 2 days. Green cells are live cells and red cells are dead cells.
• 1. The day before the experiment, all necessary tools were sprayed with 70% ethanol and sterilized under UV light overnight, including blade, dissecting and micro-dissecting scissors and […]. 24-well dishes were placed at 4° C. to pre-chill plates and Matrigel was thawed, 24 hours before tumor dissection. • 2. 70% ethanol was sprayed on working bench. Two sterile petri dishes were prepared with 10 ml sterile PBS. The following steps 3 and 4 are necessary for mouse tumor models. For fresh human tumor, steps 3 and 4 are skipped. • 3. The tumor-bearing mice were euthanized. 70% ethanol was sprayed on the mouse and the tumor was removed using sterilized dissecting tools (avoid the fur). The tumor was rinsed in petri dish with sterile PBS to remove ethanol and fur. […] When the assay was ready to be analyzed for cell death (e.g., 48 hours after drug addition), the dye mixture was prepared by mixing 6 μl of green dye to stain live cells (5 mg/ml Fluorescein diacetate or FDA in DMSO) with 30 μl of red dye (2.5 mg/ml Propidium iodide or PI in PBS) to stain dead cells in an Eppendorf tube. […]

Test [1] concerns LL/2 lung cancer tumor endothelial cells. As to the kind of experiment: Lung LL2 ex vivo model of tumor angiogenesis. The settings on record: 20 μm. It counts as cell-based, mouse. The method, boiled down:
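LL2 mouse tumor fragments (~0.075 mm³) embedded in Matrigel and cultured in endothelial growth medium at 37 °C until endothelial outgrowth (~4 days) before treatment. Cell death assessed e.g. 48 h after drug by fluorescein diacetate (live)/propidium iodide (dead) staining and red/green fluorescence imaging.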

For the next test, the system named is tumor blood vessels. As to the kind of experiment: Systemic administration in tumor-bearing mouse (FIG. 7). It counts as in vivo. The text has this:
FIG. 7A-D. Systemic administration of a compound that targets PLXDC1 and PLXDC2 kills existing tumor blood vessels and leads to massive tumor necrosis. […] The high specificity of the treatment is illustrated by the healthy skin blood vessels that cover the dead yellow tumor. C. The tumor from control mouse in A is cut open to reveal that it is rich in tumor blood vessels and is a live tumor. D. The tumor from compound-treated mouse in B is cut open to reveal a lack of tumor blood vessels and a necrotic tumor with yellow cheese-like appearance (coagulative necrosis). Coagulative necrosis is exactly what is expected for a treatment that can kill existing tumor blood vessels to block major blood supplies to the tumor. Precise and efficient killing of tumor blood vessels to cause massive tumor death by necrosis, which has been achieved by the compound 369 targeting PLXDC1/PLXDC2, cannot be achieved by any existing drugs or known antiangiogenic factors.
The tumor died of massive coagulative necrosis, exactly the kind of cell death caused by killing blood vessels.

Test [2] concerns choroidal endothelial cells. As to the kind of experiment: Ex vivo model of choroidal angiogenesis (FIG. 2). It counts as cell-based. As to the method:
FIG. 2A-E. Comparison of compound 369 (Table 3) with the current anti-angiogenic drug in an ex vivo model of choroidal angiogenesis. A. A schematic diagram of the timeframe of the experiment. […] Treatment lasts for two days before cell death and survival are analyzed. B. Control experiment without any drug treatment at day 7. The white circle in the middle delineates the piece of choroid/RPE that was embedded to initiate neovascularization. C. […] Eylea was added at 10 μM. […] The compound was added at 10 μM. In B-D, green cells are live cells and red cells are dead cells. E. Quantitation of the experiments described in B-D. The amount of new endothelial cells in the untreated control is defined as 100%.

In the case of `O=c1[nH]cc(F)c(=O)[nH]1` [Fluorouracil, 5-fluorouracil, reference compound], at PLXDC1, the “Gfi1b promotor activity in PLXDC1-expressing cells” value is on record as “does not activate this promoter”.
Turning to `CCCCCCCCCCCCOc1ccc(S(=O)(=O)c2cnc3ccc([S+](C)[O-])cc3c2N2CCC(N3CCC(N4CCN(CCO)CC4)CC3)CC2)cc1F` (stereo not shown) [Compound 369], in the test on tumor endothelial cells, the “Killing of existing tumor endothelial cells” value was “can kill existing tumor endothelial cells”. Also, the “48 hrs (morphology observations)” value in test [1] (48 hours, LL/2 tumor endothelial cells) is given as “* (50% or less of cells vesicularize in cell shape)”. In addition, the Cell death in test [1] (drug treatment for two days, ratio of red area to total endothelial cell area) was 20%. Also, the “Killing of existing tumor blood vessels and tumor death” value in the test with tumor blood vessels was “can kill existing tumor blood vessels and lead to strong tumor death”. Moreover, the “Killing of endothelial cells in choroidal angiogenesis” value in test [2] (added at 10 μM at day 7, treatment two days) is “can kill the endothelial cells”. Also, the “Effect on healthy tissue (choroid and retinal pigment epithelium)” value in test [2] (added at 10 μM, two days) is given as “without affecting the healthy tissue”.
